Measured values published in US10485236B2, “Triazole derivatives, intermediates thereof and their use as fungicides” (Bayer CropScience Aktiengesellschaft, priority 2015, dated 2019).
Marks after values point to notes of the source that are not given here.

Test system: not listed separately
Assay: Measurement of LogP values by HPLC on reversed phase columns (EEC directive 79/831 Annex V.A8)
Assay type: physicochemical
Conditions: not given
Procedure: [table] If more than one Log P value is available within the same method, all the values are given and separated by “+”. Calibration was done with straight-chain alkan2-ones (with 3 to 16 carbon atoms) with known Log P values (measurement of Log P values using retention times with linear interpolation between successive alkanones). Lambda-max-values were determined using UV-spectra from 200 nm to 400 nm and the peak values of the chromatographic signals.

| SMILES | LogP |
| --- | --- |
| O=C(Cn1cncn1)c1ccc(Oc2ccc(OC(F)(F)F)c(Cl)c2)nc1Cl [VII.04] | 3.33^[a] |
| O=C(Cn1cncn1)c1ccc(Oc2ccccc2)nc1Cl [VII.06] | 2.21^[a] |
| O=C(Cn1cncn1)c1ccc(Oc2ccc(OC(F)(F)F)cc2)nc1Cl [VII.08] | 2.95^[a] |
| O=C(Cn1cncn1)c1ccc(Oc2ccc(Cl)cc2)nc1Cl [VII.09] | 2.66^[a] |
| Cc1ccc(Oc2ccc(C(=O)Cn3cncn3)c(Cl)n2)cc1Cl [VII.11] | 3.02^[a] |
| O=C(Cn1cncn1)c1ccc(Oc2ccc(F)cc2)nc1Cl [VII.12] | 2.30^[a] |
| O=C(Cn1cncn1)c1ccc(Oc2ccccc2F)nc1Cl [VII.14] | 2.28^[a] |
| O=C(Cn1cncn1)c1ccc(Oc2ccc(Cl)cc2Cl)nc1Cl [VII.16] | 3.02^[a] |
| CC(=O)c1ccc(Oc2ccc(C(=O)Cn3cncn3)c(Cl)n2)cc1 [VII.17] | 1.96^[a] |
| O=C(Cn1cncn1)c1ccc(Oc2ccc(Cl)cc2)nc1OC(F)(F)F [VII.18] | 3.23^[a] |
| COc1ccc(Oc2ccc(C(=O)Cn3cncn3)c(Cl)n2)c(Cl)c1 [VII.19] | 2.58^[a] |
| O=C(Cn1cncn1)c1ccc(Oc2ccc(S(F)(F)(F)(F)F)cc2)nc1Cl [VII.20] | 3.11^[a] |
| O=C(Cn1cncn1)c1ccc(Oc2ccc(C(F)F)cc2)nc1Cl [VII.22] | 2.39^[a] |
| O=C(Cn1cncn1)c1ccc(Oc2ccc(Br)cc2)nc1C(F)(F)F [VII.24] | 2.99^[a] |
| O=C(Cn1cncn1)c1cnc(Oc2ccc(OC(F)(F)F)cc2)cc1C(F)(F)F [VII.26] | 3.27^[a] |
| O=C(Cn1cncn1)c1cnc(Oc2ccc(Br)cc2)cc1C(F)(F)F [VII.27] | 3.02^[a] |
| O=C(Cn1cncn1)c1cnc(Oc2ccc(C(F)(F)F)cc2)cc1C(F)(F)F [VII.28] | 3.17^[a] |
| O=C(Cn1cncn1)c1cnc(Oc2ccc(Cl)cc2F)cc1C(F)(F)F [VII.30] | 3.06^[a] |
| O=C(Cn1cncn1)c1ccc(Oc2ccc(C(F)(F)F)cc2)nc1C(F)(F)F [VII.32] | 3.04^[a] |
| CC(C)c1ccc(Oc2ccc(C(=O)Cn3cncn3)c(C(F)(F)F)n2)cc1 [VII.34] | 3.44^[a] |
| O=C(Cn1cncn1)c1cnc(Oc2ccc(Cl)cc2)cc1C(F)F [VII.36] | 2.51^[a] |
| O=C(Cn1cncn1)c1ccc(Oc2ccc(Cl)cc2F)nc1C(F)(F)F [VII.37] | 2.74^[a] |
| O=C(Cn1cncn1)c1cnc(Oc2ccc(Cl)cc2)cc1Cl [VII.38] | 2.60^[a] |
| O=C(Cn1cncn1)c1cnc(Oc2ccc(C(F)(F)F)cc2)cc1Cl [VII.40] | 2.92^[a] |
| O=C(Cn1cncn1)c1ccc(Oc2ccc(C(F)F)cc2)nc1C(F)(F)F [VII.42] | 2.41^[a] |

The next lines start with the values.

| LogP | SMILES |
| --- | --- |
| 2.20^[a] | O=C(Cn1cncn1)c1cnc(Oc2ccccc2)cc1Cl [VII.05] |
| 2.45^[a] | O=C(Cn1cncn1)c1ncc(Oc2ccccc2)cc1Cl [VII.07] |
| 2.94^[a] | Cc1cc(Cl)ccc1Oc1ccc(C(=O)Cn2cncn2)c(Cl)n1 [VII.10] |
| 2.41^[a] | O=C(Cn1cncn1)c1ccc(Oc2ccc(F)cc2F)nc1Cl [VII.13] |
| 2.66^[a] | O=C(Cn1cncn1)c1ccc(Oc2cc(F)c(F)c(F)c2)nc1Cl [VII.15] |
| 3.35^[a] | O=C(Cn1cncn1)c1cnc(Oc2ccc(S(F)(F)(F)(F)F)cc2)cc1C(F)(F)F [VII.21] |
| 2.54^[a] | O=C(Cn1cncn1)c1ncc(Oc2ccc(Cl)cc2)nc1Cl [VII.23] |
| 2.50^[a] | O=C(Cn1cncn1)c1ccc(Oc2ccc(Cl)cc2)nc1F [VII.25] |
| 2.80^[a] | O=C(Cn1cncn1)c1cnc(Oc2ccc(C(F)F)cc2)cc1C(F)(F)F [VII.29] |
| 3.23^[a] | O=C(Cn1cncn1)c1ccc(Oc2ccc(S(F)(F)(F)(F)F)cc2)nc1C(F)(F)F [VII.31] |
| 2.96^[a] | O=C(Cn1cncn1)c1ccc(Oc2c(F)cc(Cl)cc2F)nc1C(F)(F)F [VII.33] |
| 2.68^[a] | O=C(Cn1cncn1)c1ccc(Oc2ccc(Br)cc2)nc1C(F)F [VII.35] |
| 2.95^[a] | O=C(Cn1cncn1)c1ccc(Oc2ccc(OC(F)(F)F)cc2)nc1C(F)(F)F [VII.39] |
| 2.61^[a] | O=C(Cn1cncn1)c1cnc(Oc2ccc(Br)cc2)cc1C(F)F [VII.41] |

Same assay, conditions: reversed phase HPLC column, method [a]: LC-UV, acidic range, 0.1% formic acid in water and acetonitrile as eluent

| chromatographic logP | SMILES |
| --- | --- |
| 2.68 | OC(Cn1cncn1)c1cnc(Oc2ccc(Cl)cc2)cc1C(F)(F)F (stereo not drawn) [I.04, 1-[6-(4-chlorophenoxy)-4-(trifluoromethyl)-3-pyridyl]-2-(1,2,4-triazol-1-yl)ethanol] |

Same assay, conditions: reversed phase HPLC column, method [a]; compounds of formula (VII), Table 4

| chromatographic logP | SMILES |
| --- | --- |
| 2.92 | O=C(Cn1cncn1)c1cnc(Oc2ccc(Cl)cc2)cc1C(F)(F)F [VII.02, 1-[6-(4-chlorophenoxy)-4-(trifluoromethyl)-3-pyridyl]-2-(1,2,4-triazol-1-yl)ethanone] |

Test system: Sphaerotheca fuliginea
Assay: Example D: in vivo preventive test on Sphaerotheca fuliginea (powdery mildew on cucurbits)
Conditions: Podosphaera fuliginea, 360 h; 500 ppm of active ingredient; gherkin plants, preventive spray; evaluated 15 days after inoculation; read-out: efficacy
Procedure: Example D: In Vivo Preventive Test on Sphaerotheca fuliginea (Powdery Mildew on Cucurbits) [table] The active ingredients are made soluble and homogenized in a mixture of Dimethyl sulfoxide/Acetone//Tween® 80 and then diluted in water to the desired concentration. The young plants of gherkin are treated by spraying the active ingredient prepared as described above. Control plants are treated only with an aqueous solution of Acetone/Dimethyl sulfoxide/Tween® 80. After 24 hours, the plants are contaminated by spraying the leaves with an aqueous suspension of Sphaerotheca fuliginea spores. The contaminated gherkin plants are incubated for 72 hours at 18° C. and at 100% relative humidity and then for 12 days at 20° C. and at 70-80% relative humidity. The test is evaluated 15 days after the inoculation. 0% means an efficacy which corresponds to that of the control plants while an efficacy of 100% means that no disease is observed.

| SMILES | pest or weed control at 500 ppm [%] |
| --- | --- |
| OC(Cn1cncn1)c1cnc(Oc2ccc(Cl)cc2)cc1C(F)(F)F (stereo not drawn) [I.04, 1-[6-(4-chlorophenoxy)-4-(trifluoromethyl)-3-pyridyl]-2-(1,2,4-triazol-1-yl)ethanol] | 90 to 100 |
| O=C(Cn1cncn1)c1cnc(Oc2ccc(Cl)cc2)cc1C(F)(F)F [VII.02, 1-[6-(4-chlorophenoxy)-4-(trifluoromethyl)-3-pyridyl]-2-(1,2,4-triazol-1-yl)ethanone] | 90 to 100 |

Test system: Sphaerotheca fuliginea
Assay: Example M: in vivo preventive test on Sphaerotheca (cucumbers); comparison of phenoxy-pyridyl compounds vs. known phenoxy-phenyl compounds
Conditions: Podosphaera fuliginea, 168 h, rate of application 10 ppm, evaluated 7 days after inoculation, read-out: Efficacy in %
Procedure: Example M: In Vivo Preventive Test on Sphaerotheca (Cucumbers); Comparison of Phenoxy-pyridyl Compounds According to the Invention Vs. Known Phenoxy-phenyl Compounds [table] To produce a suitable preparation of active compound, 1 part by weight of active compound is mixed with the above stated amounts of solvent and emulsifier, and the concentrate is diluted with water to the desired concentration. To test for preventive activity, young plants are sprayed with the preparation of active compound at the stated rate of application. After the spray coating has dried on, the plants are inoculated with an aqueous spore suspension of Sphaerotheca fuliginea. The plants are then placed in a greenhouse at approximately 23° C. and a relative atmospheric humidity of approximately 70%. The test is evaluated 7 days after the inoculation. 0% means an efficacy which corresponds to that of the untreated control, while an efficacy of 100% means that no disease is observed. [table]

| SMILES | pest or weed control at 10 ppm [%] |
| --- | --- |
| CC(O)(Cn1cncn1)c1ccc(Oc2ccc(Cl)cc2)cc1C(F)(F)F (stereo not drawn) [reference compound] | 30 |

Test system: Puccinia recondita
Assay: Example B: in vivo preventive test on Puccinia recondita (brown rust on wheat)
Conditions: 264 h, 500 ppm of active ingredient, wheat plants, preventive spray, evaluated 11 days after inoculation, read-out: efficacy
Procedure: (§1) Example B: In Vivo Preventive Test on Puccinia recondita (Brown Rust on Wheat) [table] The active ingredients are made soluble and homogenized in a mixture of Dimethyl sulfoxide/Acetone//Tween® 80 and then diluted in water to the desired concentration. The young plants of wheat are treated by spraying the active ingredient prepared as described above. Control plants are treated only with an aqueous solution of Acetone/Dimethyl sulfoxide/Tween® 80. After 24 hours, the plants are contaminated by spraying the leaves with an aqueous suspension of Puccinia recondita spores. The contaminated wheat plants are incubated for 24 hours at 20° C. and at 100% relative humidity and then for 10 days at 20° C. and at 70-80% relative humidity. The test is evaluated 11 days after the inoculation. 0% means an efficacy which corresponds to that of the control plants while an efficacy of 100% means that no disease is observed.

| SMILES | pest or weed control at 500 ppm [%] |
| --- | --- |
| OC(Cn1cncn1)c1cnc(Oc2ccc(Cl)cc2)cc1C(F)(F)F (stereo not drawn) [I.04, 1-[6-(4-chlorophenoxy)-4-(trifluoromethyl)-3-pyridyl]-2-(1,2,4-triazol-1-yl)ethanol] | 90 to 100 |
| O=C(Cn1cncn1)c1cnc(Oc2ccc(Cl)cc2)cc1C(F)(F)F [VII.02, 1-[6-(4-chlorophenoxy)-4-(trifluoromethyl)-3-pyridyl]-2-(1,2,4-triazol-1-yl)ethanone] | 90 to 100 |

Test system: Uromyces appendiculatus
Assay: Example E: in vivo preventive test on Uromyces appendiculatus (bean rust)
Conditions: 264 h, 500 ppm of active ingredient, bean plants, preventive spray, evaluated 11 days after inoculation, read-out: efficacy
Procedure: as §1, with “E:” for “B:”, “Uromyces appendiculatus (Bean Rust)” for “Puccinia recondita (Brown Rust on Wheat)”, “bean” for “wheat”, “Uromyces appendiculatus” for “Puccinia recondita”

| SMILES | pest or weed control at 500 ppm [%] |
| --- | --- |
| OC(Cn1cncn1)c1cnc(Oc2ccc(Cl)cc2)cc1C(F)(F)F (stereo not drawn) [I.04, 1-[6-(4-chlorophenoxy)-4-(trifluoromethyl)-3-pyridyl]-2-(1,2,4-triazol-1-yl)ethanol] | 90 to 100 |
| O=C(Cn1cncn1)c1cnc(Oc2ccc(Cl)cc2)cc1C(F)(F)F [VII.02, 1-[6-(4-chlorophenoxy)-4-(trifluoromethyl)-3-pyridyl]-2-(1,2,4-triazol-1-yl)ethanone] | 80 to 89 |
